Assay results taken from ChEMBL document CHEMBL4152265, “Phthalocyanine-sulfonamide conjugates: Synthesis and photodynamic inactivation of Gram-negative and Gram-positive bacteria” (Eur J Med Chem, 2018).
Activity calls are given as the source filed them. No cut-off for these calls is given here.

What was measured:
[1] = Solubility of compound in DMSO at 2.5 to 25 umol/L by UV-Vis spectroscopic method; assay type: physicochemical
[2] = Solubility of compound in PBS/10% DMSO at 2.5 to 25 umol/L by UV-Vis spectroscopic method; assay type: physicochemical; conditions: buffer
[3] = Solubility of PVP encapsulated compound in PBS at 2.5 to 25 umol/L by UV-Vis spectroscopic method; assay type: physicochemical; conditions: buffer
[4] = Induction of singlet oxygen generation in DMF assessed as DPBF decay at 0.5 mmol/L measured after 7 mins of LED irradiation at 9 mW/cm2; assay type: functional
[5] = Induction of singlet oxygen generation in PBS/DMSO assessed as DPBF decay at 0.5 mmol/L measured after 7 mins of LED irradiation at 9 mW/cm2; assay type: functional
[6] = Induction of singlet oxygen generation in PBS assessed as DPBF decay using PVP encapsulated compound at 0.5 mmol/L measured after 7 mins of LED irradiation at 9 mW/cm2; assay type: functional
[7] = Photostability in PBS at 2 ml measured after 30 mins of red light irradiation at 150 mW/cm2 by UV-Vis spectroscopic method; assay type: physicochemical; conditions: buffer, 0.5 h
Escherichia coli [8] = assay: Effect on viability of recombinant bioluminescence Escherichia coli harboring pHK724/pHK555 at 20 uM after 30 mins in absence of light by luminometry; assay type: organism-based; conditions: in vivo, 0.5 h
Escherichia coli [9] = assay: Antibacterial activity against recombinant bioluminescence Escherichia coli harboring pHK724/pHK555 at 20 uM preincubated in dark for 30 mins followed by red light irradiation at 1620 J/cm2 for 180 mins by luminometry; assay type: functional, organism-based
Escherichia coli [10] = assay: Effect on viability of recombinant bioluminescence Escherichia coli harboring pHK724/pHK555 using PVP encapsulated compound at 20 uM after 30 mins in absence of light by luminometry; assay type: organism-based; conditions: in vivo, 0.5 h
Escherichia coli [11] = assay: Antibacterial activity against recombinant bioluminescence Escherichia coli harboring pHK724/pHK555 at 20 uM using PVP encapsulated compound preincubated in dark for 30 mins followed by red light irradiation at 1620 J/cm2 for 180 mins by luminometry; assay type: functional, organism-based
Staphylococcus aureus [12] = assay: Effect on viability of Staphylococcus aureus ATCC 29213 at 20 uM after 30 mins in absence of light by […]; assay type: organism-based; conditions: in vivo, 0.5 h
Staphylococcus aureus [13] = assay: Effect on viability of Staphylococcus aureus ATCC 29213 using PVP encapsulated compound at 20 uM after 30 mins in absence of light by […]; assay type: organism-based; conditions: in vivo, 0.5 h
Staphylococcus aureus [14] = assay: Antibacterial activity against Staphylococcus aureus ATCC 29213 at 20 uM preincubated in dark for 30 mins followed by red light irradiation at 270 J/cm2 for 30 mins by […] relative to control; assay type: functional
Staphylococcus aureus [15] = assay: Antibacterial activity against Staphylococcus aureus ATCC 29213 using PVP encapsulated compound at 20 uM preincubated in dark for 30 mins followed by red light irradiation at 270 J/cm2 for 30 mins by […] relative to control; assay type: functional, organism-based

Structure (SMILES)	solubility [1]	solubility [2]	solubility [3]	Activity [4] [%]	Activity [5] [%]	Activity [6] [%]	Stability [7]	Activity (Escherichia coli [8])	Activity (Escherichia coli [9])	Activity (Escherichia coli [10])	Activity (Escherichia coli [11])	Activity (Staphylococcus aureus [12])	Activity (Staphylococcus aureus [13])	Activity (Staphylococcus aureus [14]) [deltalog10CFU/ml]	Activity (Staphylococcus aureus [15])
COc1ccc(NS(=O)(=O)c2ccc(Oc3cc4c(cc3Oc3ccc(S(=O)(=O)Nc5ccc(OC)cc5)cc3)-c3nc-4nc4[nH]c(nc5nc(nc6[nH]c(n3)c3cc(Oc7ccc(S(=O)(=O)Nc8ccc(OC)cc8)cc7)c(Oc7ccc(S(=O)(=O)Nc8ccc(OC)cc8)cc7)cc63)-c3cc(Oc6ccc(S(=O)(=O)Nc7ccc(OC)cc7)cc6)c(Oc6ccc(S(=O)(=O)Nc7ccc(OC)cc7)cc6)cc3-5)c3cc(Oc5ccc(S(=O)(=O)Nc6ccc(OC)cc6)cc5)c(Oc5ccc(S(=O)(=O)Nc6ccc(OC)cc6)cc5)cc43)cc2)cc1	Soluble	Insoluble	Soluble	92	4	59	Stable	Non-Toxic	Active	Non-Toxic	inactive	Non-Toxic	Non-Toxic	>3	Active
CCN(CC)S(=O)(=O)c1ccc(Oc2cc3c(cc2Oc2ccc(S(=O)(=O)N(CC)CC)cc2)-c2nc-3nc3[nH]c(nc4nc(nc5[nH]c(n2)c2cc(Oc6ccc(S(=O)(=O)N(CC)CC)cc6)c(Oc6ccc(S(=O)(=O)N(CC)CC)cc6)cc52)-c2cc(Oc5ccc(S(=O)(=O)N(CC)CC)cc5)c(Oc5ccc(S(=O)(=O)N(CC)CC)cc5)cc2-4)c2cc(Oc4ccc(S(=O)(=O)N(CC)CC)cc4)c(Oc4ccc(S(=O)(=O)N(CC)CC)cc4)cc32)cc1	Soluble	Insoluble	Soluble	93	1	68	Stable	Non-Toxic	inactive	Non-Toxic	inactive	Non-Toxic	Non-Toxic	>3	Active
CC(C)NS(=O)(=O)c1ccc(Oc2cc3c(cc2Oc2ccc(S(=O)(=O)NC(C)C)cc2)-c2nc-3nc3[nH]c(nc4nc(nc5[nH]c(n2)c2cc(Oc6ccc(S(=O)(=O)NC(C)C)cc6)c(Oc6ccc(S(=O)(=O)NC(C)C)cc6)cc52)-c2cc(Oc5ccc(S(=O)(=O)NC(C)C)cc5)c(Oc5ccc(S(=O)(=O)NC(C)C)cc5)cc2-4)c2cc(Oc4ccc(S(=O)(=O)NC(C)C)cc4)c(Oc4ccc(S(=O)(=O)NC(C)C)cc4)cc32)cc1	Soluble	Insoluble	Soluble	96	4	74	Stable	Non-Toxic	Active	Non-Toxic	inactive	Non-Toxic	Non-Toxic	–	Active
